Laboratory results reported in US7772383B2, “Chemical PCR: Compositions for enhancing polynucleotide amplification reactions” (The Trustees of Princeton University, priority 2002, dated 2010).

Columns and labels:
Format in all cases: biochemical
[1] = system: bovine brain glycolipid transfer protein (GTP) cDNA (660 bp); experiment: PCR amplification of GTP cDNA with diol additives, standard cycling; details: for Potency / Effective range: GTP; for Potency: 95° C. denaturing, 72° C. extension, normalized maximum densitometric volume of target band: 1,5-Pentanediol = 1; for Effective range: concentration interval over which densitometric volume of target band is at least 50% of maximum volume
Protocol: (§1) Amplification reactions were carried out under the following general conditions. Those skilled in the art will appreciate, however, that to the extent that the conditions (set forth in this application) required for specific experiments described in this example were inconsistent with the following general conditions, limited exceptions to the following general conditions were made The general conditions were as follows: 10 Mm Tris-HCl (Ph 8.8), 50 Mm KCl, 1.5 Mm MgCl2, 0.01% (w/v) gelatin, 0.2 Um primers, 0.06 ng/ul template, 0.2 Mm each Dntp, 0.04 U/ul Taq polymerase. The templates used were bovine brain N-WASP cDNA (1518 bp), a 996 bp segment of human myeloid leukocyte c-jun cDNA, a 511 bp segment of human prostate-specific membrane antigen (PSM) cDNA, and bovine brain glycolipid transfer protein (GTP) cDNA (660 bp). cDNA synthesis was carried out using the FIRST-STRAND® RT-PCR kit from Stratagene on the respective mRNAs purchased from Clontech. All amplification reactions for gene were carried out using a single master batch of cDNA. Taq polymerase and dNTPs were obtained from Stratagene. Primers were obtained from Genosys. Primer melting temperatures (Tms) were calculated using the Genosys oligo calculator program. The sequences of the primers were as follows.
(§2) Polymerase chain reactions for the N-WASP gene were conducted on a ROBOCYCLER® Gradient 40 thermal cycler from Stratagene using 100 ul solutions in 600 ul thin-walled tubes. For expediency, amplification of c-jun, PSM and GTP was carried out in a ROBOCYCLER® Gradient 96 thermal cycler from Stratagene using 50 ul solutions in 200 ul thin-walled tubes. Prior to Taq polymerase addition, a hotstart protocol was carried out that consisted of an initial cycle of 95° C. for 5 minutes (11) to ensure complete first-strand separation, followed by a cycle of 54° C. for 5 minutes. Amplifications were run for 30 cycles. […] Extension was done at 72° C. for periods depending on target length: 2 minutes for N-WASP, 1.5 minutes for c-jun and GTP, and 1 minute for PSM. Annealings were carried out either at fixed concentrations of additives using temperature gradients of 38-56° C. for N-WASP and 44-58° C. for the other targets, or at varying concentrations of additives using fixed temperatures of 41° C. for N-WASP, 50° C. for c-jun and PSM, and 54° C. for GTP.
(§3) Amplification products were analyzed by agarose gel electrophoresis on 0.8% agarose gels in which 20 ul reaction products were loaded with 4 ul loading buffer. Gels were stained with ethidium bromide, visualized on a UV transilluminator (Fisher), and documented by photography. Densitometric quantitation of amplification products was carried out using IMAGE SCANNER® and IMAGE MASTER® software from Amersham Pharmacia. Background correction was done using the software's rolling disc method.
Investigations into the PCR enhancing capabilities of diol cosolvents were carried out using GTP as the primary template. […] The standard protocol for annealing temperature and concentration gradient screening was again followed. […] These cosolvents were thus omitted from further studies. The optimal annealing temperatures for the remaining compounds were: ethylene glycol, 1,2-propanediol, 1,3-propanediol and cis-1,2-cyclopentanediol—58° C.; 1,2-butanediol—54° C.; 1,3-butanediol and 1,4-butanediol—[…]; 2,4-pentanediol, 1,5-pentanediol, 1,6-hexanediol and MPD—56° C.

[2] = system: 511 bp segment of human prostate-specific membrane antigen (PSM) cDNA; experiment: PCR amplification of PSM cDNA with diol additives, standard cycling; details: PSM; for Specificity: best specificity (densitometric volume of target as percent of total volume) over the effective range; for Effective range: concentration interval over which densitometric volume of target is at least 50% of maximum; for Potency: normalized maximum densitometric volume of target band: 1,3-Butanediol = 1
Protocol: as §1, §2, §3
(§4) With PSM, 1,2-propanediol, 1,2-butanediol, 1,3-butanediol, 1,4-butanediol and glycerol were tested; with c-jun, ethylene glycol and 1,3-propanediol were also tested in addition to these compounds. […] The following additive concentrations were tested using these annealing temperatures: 1,2-propanediol—0.5, 0.8, 1.1, 1.4, 1.7 and 2.0M; 1,2-butanediol—0.1, 0.3, 0.5, 0.6, 0.7 and 0.8M; 1,3-butanediol—0.1, 0.3, 0.5, 0.6, 0.9, 1.1, 1.2M; 1,4-butanediol—0.1 to 1.1M in 0.2M intervals; 1,5-pentanediol—0.1-0.6M in 0.1M intervals; glycerol—0.5 to 1.9M in 0.2M intervals, and 2.2M.

[3] = system: 996 bp segment of human myeloid leukocyte c-jun cDNA; experiment: PCR amplification of c-jun cDNA with diol additives, standard cycling; details: c-jun; for Effective range: concentration interval over which densitometric volume of target band is at least 50% of maximum volume; for Potency: normalized maximum densitometric volume of target band: 1,5-Pentanediol = 1
Protocol: as §1, §2, §3, §4

Row | SMILES | Potency [1] | Effective range [1] | GTP Potency ([1]; comparative standard 95/55/72° C., 0.3 M, best result under conventional conditions, normalization reference) | Specificity [2] | Effective range [2] | Potency [2] | Effective range [3] | Potency [3]
1 | OCCCCCO [1,5-Pentanediol] | 1.00 | 0.16 to 0.47 M | 1.00 | 94% | 0.31 to 0.49 M | 0.54 | 0.17 to 0.45 M | 1.00
2 | CCC(O)CO (stereo not drawn) [1,2-Butanediol] | 0.57 | 0.08 to 0.62 M | – | 92% | 0.34 to 0.73 M | 0.42 | 0.27 to 0.74 M | 0.64
